What is called IC50 is the concentration that gives 50% inhibition. A lower IC50 goes with greater potency.

The structures appear in SMILES notation. Values joined by “and” are separate entries in the source; they are usually repeats but may differ in a detail not shown here. Equal entries are not always repeated. Where only a bound is given, the exact number is not on record here.

In this experiment the target is JNK1 (Homo sapiens, UniProt P45983). The experiment can be described thus: DELFIA kinase assay, JNK1. It counts as biochemical. The settings on record: DELFIA, biotinylated GST-ATF2 substrate, 10 minute pre-incubation, final ATP 7 uM. As to the method: Assay DELFIA (Dissociation Enhanced Lanthanide Fluorescence Immuno-Assay) Assay:
Before initiation of kinase reactions, compounds were pre-incubated with the enzyme for 10 minutes. Pre-incubation reactions contained 50 mM HEPES pH 7.3, 10 mM MgCl2, 1 mM DTT, 75 mM NaCl, 1 mM EDTA, 1 mM EGTA, 0.01% CHAPS, 2 nM JNK1, 6 ug/mL biotinylated GST-ATF2, 0.1 mg/ml BSA, 5% DMSO and 0-100 μM compound in a total volume of 40 μL. After a 10 minute room temperature pre-incubation, 10 μL of 35 μM ATP was added to start the reaction (final concentration of ATP=7 uM). Reactions were incubated at room temperature for 30 minutes. A small aliquot (10 uL) was taken and quenched by adding into 190 uL of DELFIA Assay buffer containing 100 mM EDTA. The amount of phosphate transferred to biotinylated GST-ATF2 was measured using the Dissociation Enhanced Lanthanide Fluorescence Immuno-assay (DELFIA) from Perkin Elmer according to manufacturers protocol. Briefly, biotinylated GST-ATF2 was captured on streptavidin coated plates for 1 hour, washed twice, then incubated for 1 hour with a 1:1000 dilution of rabbit-anti-phospho-ATF2 antibody and a 1:3500 dilution of Europium-labeled anti-rabbit secondary antibody. Free antibody was removed with six washes, Europium was dissociated from the antibody, and Europium fluorescence was measured using an excitation wavelength of 340 nm and an emission wavelength of 615 nm. JNK2 and JNK3 kinase reactions were carried out similarly, with the exception that the final concentration of ATP was 4 uM and 2 uM, respectively.

Sequence of JNK1 (P45983 whole entry, species assumed): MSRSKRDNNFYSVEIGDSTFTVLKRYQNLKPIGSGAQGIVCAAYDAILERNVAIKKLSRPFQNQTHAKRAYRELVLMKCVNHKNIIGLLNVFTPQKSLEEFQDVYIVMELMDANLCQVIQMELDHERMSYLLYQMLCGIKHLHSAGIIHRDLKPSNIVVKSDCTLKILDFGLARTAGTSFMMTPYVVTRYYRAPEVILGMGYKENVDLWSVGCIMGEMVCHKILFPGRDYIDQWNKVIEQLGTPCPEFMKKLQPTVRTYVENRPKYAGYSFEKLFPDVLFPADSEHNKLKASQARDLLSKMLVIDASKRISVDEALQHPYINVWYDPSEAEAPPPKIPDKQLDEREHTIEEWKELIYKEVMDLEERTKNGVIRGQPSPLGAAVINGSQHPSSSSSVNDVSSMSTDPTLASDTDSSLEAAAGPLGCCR

In turn, `CC(C)NC(=O)c1cccc(C(=O)NCc2ccc3nc(N)sc3c2)n1` [Compound 5] yielded a half-inhibitory concentration (IC50) of 0.004 to 0.097 µM.

`C[C@@H](CO)NC(=O)c1cccc(C(=O)NCc2ccc3nc(N)sc3c2)n1` [Compound 6] yielded a half-inhibitory concentration (IC50) of 0.004 to 0.097 µM.

`CCC(C)NC(=O)c1cccc(C(=O)NCc2ccc3nc(N)sc3c2)n1` (stereo not shown) [Compound 7]: the concentration for half-maximal inhibition (IC50) fell in the range of 0.004 to 0.097 µM.

As for `CC[C@@H](C)NC(=O)c1cccc(C(=O)NCc2ccc3nc(N)sc3c2)n1` [Compound 8], the half-maximal inhibitory concentration (IC50) lay in the range of 0.004 to 0.097 µM.

Consider `CC[C@@H](CO)NC(=O)c1cccc(C(=O)NCc2ccc3nc(N)sc3c2)n1` [Compound 9], for which the concentration for half-maximal inhibition (IC50) lay within 0.004 to 0.097 µM.

Compound `N#Cc1ccccc1N1CCC(NC(=O)c2cccc(C(=O)NCc3ccc4nc(N)sc4c3)n2)CC1` [Compound 10] showed an IC50 of 0.004 to 0.097 µM.

Take `Nc1nc2ccc(CNC(=O)c3cccc(C(=O)NC4CCC4)n3)cc2s1` [Compound 11]: the IC50 lay in the range of 0.004 to 0.097 µM.

In turn, `Nc1nc2ccc(CNC(=O)c3cccc(C(=O)NC4CCCCC4)n3)cc2s1` [Compound 12] returned an IC50 of 0.004 to 0.097 µM.

Consider `CN(C)C(=O)c1cccc(C(=O)NCc2ccc3nc(N)sc3c2)n1` [Compound 13], for which the IC50 is above 1 µM.

`CCNC(=O)c1cccc(C(=O)NCc2ccc3nc(N)sc3c2)n1` [Compound 14] showed an IC50 above 1 µM.

In turn, `Nc1nc2ccc(CNC(=O)c3cccc(C(=O)NCCO)n3)cc2s1` [Compound 15] displayed an IC50 above 1 µM.

Turning to `CC(=O)NCCNC(=O)c1cccc(C(=O)NCc2ccc3nc(N)sc3c2)n1` [Compound 16], the IC50 is above 1 µM.

`Nc1nc2ccc(CNC(=O)c3cccc(C(=O)NCCCO)n3)cc2s1` [Compound 17]: the IC50 was above 1 µM.

Compound `CC(CO)NC(=O)c1cccc(C(=O)NCc2ccc3nc(N)sc3c2)n1` (stereo not shown) [Compound 18] showed an IC50 of 0.102 to 0.959 µM.

As for `CC(O)CNC(=O)c1cccc(C(=O)NCc2ccc3nc(N)sc3c2)n1` (stereo not shown) [Compound 19], the half-maximal inhibitory concentration (IC50) is above 1 µM.

Consider `CC(C)C[C@@H](CO)NC(=O)c1cccc(C(=O)NCc2ccc3nc(N)sc3c2)n1` [Compound 20], for which the IC50 was above 1 µM.

Compound `CC(C)C[C@@H](CO)NC(=O)c1cccc(C(=O)NCc2ccc3nc(N)sc3c2)n1` [Compound 21] yielded an IC50 of 0.102 to 0.959 µM.

Compound `Nc1nc2ccc(CNC(=O)c3cccc(C(=O)N[C@H](CO)Cc4ccccc4)n3)cc2s1` [Compound 22] had an IC50 above 1 µM.

Take `Nc1nc2ccc(CNC(=O)c3cccc(C(=O)N[C@H](CO)Cc4ccccc4)n3)cc2s1` [Compound 23]: the half-maximal inhibitory concentration (IC50) fell in the range of 0.102 to 0.959 µM.

As to `Nc1nc2ccc(CNC(=O)c3cccc(C(=O)NC[C@@H](O)c4ccccc4)n3)cc2s1` [Compound 24], the IC50 was above 1 µM.

Take `Nc1nc2ccc(CNC(=O)c3cccc(C(=O)NC[C@H](O)c4ccccc4)n3)cc2s1` [Compound 25]: the half-maximal inhibitory concentration (IC50) lay in the range of 0.102 to 0.959 µM.

On to `Nc1nc2ccc(CNC(=O)c3cccc(C(=O)NCCN4CCOCC4)n3)cc2s1` [Compound 26], for which the concentration for half-maximal inhibition (IC50) is above 1 µM.

`Nc1nc2ccc(CNC(=O)c3cccc(C(=O)NCCc4ccccc4)n3)cc2s1` [Compound 27] registered an IC50 above 1 µM.

`CC(=O)N1CCC(NC(=O)c2cccc(C(=O)NCc3ccc4nc(N)sc4c3)n2)CC1` [Compound 28]: the half-maximal inhibitory concentration (IC50) lay in the range of 0.102 to 0.959 µM.

With `CN1CCC(NC(=O)c2cccc(C(=O)NCc3ccc4nc(N)sc4c3)n2)CC1` [Compound 29], the IC50 was above 1 µM.

With `Nc1nc2ccc(CNC(=O)c3cccc(C(=O)NC4CCN(Cc5ccccc5)CC4)n3)cc2s1` [Compound 30], the IC50 was above 1 µM.

Consider `Nc1nc2ccc(CNC(=O)c3cccc(C(=O)N4CCC(c5cccc(O)c5)C(O)C4)n3)cc2s1` (stereo not shown) [Compound 31], for which the IC50 was above 1 µM.

Take `COC(=O)c1cccc(C2CCN(C(=O)c3cccc(C(=O)NCc4ccc5nc(N)sc5c4)n3)CC2O)c1` (stereo not shown) [Compound 32]: the half-inhibitory concentration (IC50) was above 1 µM.

As to `COC(=O)c1ccc(C2CCN(C(=O)c3cccc(C(=O)NCc4ccc5nc(N)sc5c4)n3)CC2O)cc1` (stereo not shown) [Compound 33], the IC50 was above 1 µM.

The compound `Nc1nc2ccc(CNC(=O)c3cccc(C(=O)N4CCCC(O)C4)n3)cc2s1` (stereo not shown) [Compound 34] yielded a 50% inhibitory concentration (IC50) above 1 µM.

`Nc1nc2ccc(CNC(=O)c3cccc(C(=O)N4CCC(O)CC4)n3)cc2s1` [Compound 35] showed an IC50 above 1 µM.

`Nc1nc2ccc(CNC(=O)c3cccc(C(=O)N4CCCCC4CO)n3)cc2s1` (stereo not shown) [Compound 36] yielded an IC50 above 1 µM.

Take `Nc1nc2ccc(CNC(=O)c3cccc(C(=O)N4CCCC(CO)C4)n3)cc2s1` (stereo not shown) [Compound 37]: the IC50 is above 1 µM.

As to `CCOC(=O)N1CCC(NC(=O)c2cccc(C(=O)N(C)C)n2)CC1` [Compound 38], the IC50 is above 1 µM.

In turn, `CCNC(=O)c1cccc(C(=O)NC2CCN(C(=O)OCC)CC2)n1` [Compound 39] registered an IC50 above 1 µM.

With `CCOC(=O)N1CCC(NC(=O)c2cccc(C(=O)NCCO)n2)CC1` [Compound 40], the IC50 was above 1 µM.

`CCOC(=O)N1CCC(NC(=O)c2cccc(C(=O)NCC(C)C)n2)CC1` [Compound 41] had a concentration for half-maximal inhibition (IC50) above 1 µM.

Compound `CCOC(=O)N1CCC(NC(=O)c2cccc(C(=O)NCc3ccncc3)n2)CC1` [Compound 42] yielded an IC50 above 1 µM.

`CCOC(=O)N1CCC(NC(=O)c2cccc(C(=O)NCc3ccc(S(C)(=O)=O)cc3)n2)CC1` [Compound 43] yielded an IC50 of 0.102 to 0.959 µM.

In turn, `CCOC(=O)N1CCC(NC(=O)c2cccc(C(=O)NCc3ccc4c(c3)OCO4)n2)CC1` [Compound 44] registered an IC50 of 0.102 to 0.959 µM.

As to `CCOC(=O)N1CCC(NC(=O)c2cccc(C(=O)NCCc3ccccc3)n2)CC1` [Compound 45], the half-inhibitory concentration (IC50) is above 1 µM.

The compound `Nc1nc2ccc(CNC(=O)c3cccc(C(=O)O)n3)cc2s1` [Compound 46] displayed a half-maximal inhibitory concentration (IC50) above 1 µM.

For the compound `CNC(=O)c1cccc(C(=O)NCc2ccc3nc(N)sc3c2)n1` [Compound 47], the IC50 is above 1 µM.

`Nc1nc2ccc(CNC(=O)c3cccc(C(=O)NC4CC4)n3)cc2s1` [Compound 48]: the IC50 is 0.102 to 0.959 µM.

In turn, `C[C@H](CO)NC(=O)c1cccc(C(=O)NCc2ccc3nc(N)sc3c2)n1` [Compound 49] displayed a concentration for half-maximal inhibition (IC50) of 0.102 to 0.959 µM.

`CC(C)[C@H](CO)NC(=O)c1cccc(C(=O)NCc2ccc3nc(N)sc3c2)n1` [Compound 50] had an IC50 of 0.102 to 0.959 µM.

`Nc1nc2ccc(CNC(=O)c3cccc(C(=O)N[C@H](CO)c4ccccc4)n3)cc2s1` [Compound 51] had a half-inhibitory concentration (IC50) of 0.102 to 0.959 µM.

`NC(=O)c1cccc(C(=O)NCc2ccc3nc(N)sc3c2)n1` [Compound 52] gave a half-maximal inhibitory concentration (IC50) of 0.102 to 0.959 µM.

Take `CC(C)(C)NC(=O)c1cccc(C(=O)NCc2ccc3nc(N)sc3c2)n1` [Compound 53]: the half-inhibitory concentration (IC50) was 0.102 to 0.959 µM.

With `Nc1nc2ccc(CNC(=O)c3cccc(C(=O)N[C@@H](CO)c4ccccc4)n3)cc2s1` [Compound 54], the IC50 is > 1 µM and 1.03 to 10 µM.

As to `CS(=O)(=O)c1ccc(CNC(=O)c2cccc(C(=O)NC3CCN(C(N)=O)CC3)n2)cc1` [Compound 55], the IC50 is 0.102 to 0.959 µM.

`CCNC(=O)N1CCC(NC(=O)c2cccc(C(=O)NCc3ccc(S(C)(=O)=O)cc3)n2)CC1` [Compound 56] displayed a concentration for half-maximal inhibition (IC50) above 1 µM.

The compound `CNC(=S)N1CCC(NC(=O)c2cccc(C(=O)NCc3ccc(S(C)(=O)=O)cc3)n2)CC1` [Compound 57] gave an IC50 of 0.102 to 0.959 µM.

`CS(=O)(=O)c1ccc(CNC(=O)c2cccc(C(=O)NC3CCN(S(C)(=O)=O)CC3)n2)cc1` [Compound 58] registered an IC50 above 1 µM.

`CC(C)[C@H](CO)NC(=O)c1cccc(C(=O)NCc2ccc3nc(N)sc3c2)n1` [Compound 59] yielded an IC50 above 1 µM.

In turn, `CCS(=O)(=O)N1CCC(NC(=O)c2cccc(C(=O)NCc3ccc(S(C)(=O)=O)cc3)n2)CC1` [Compound 60] yielded an IC50 above 1 µM.

In turn, `CS(=O)(=O)c1ccc(CNC(=O)c2cccc(C(=O)NC3CCN(S(=O)(=O)Cc4ccccc4)CC3)n2)cc1` [Compound 61] returned an IC50 above 1 µM.

Compound `CCOC(=O)c1cccc(C(=O)NCc2ccc3nc(N)sc3c2)n1` [Compound 62] displayed a half-inhibitory concentration (IC50) above 1 µM.

As to `Nc1nc2ccc(CNC(=O)c3cccc(CO)n3)cc2s1` [Compound 63], the half-inhibitory concentration (IC50) is 1.03 to 10 µM and > 1 µM.

In turn, `CC(C)CNC(=O)c1cccc(C(=O)NCc2ccc3nc(N)sc3c2)n1` [Compound 64] showed an IC50 above 1 µM.

As for `CCCNC(=O)c1cccc(C(=O)NCc2ccc3nc(N)sc3c2)n1` [Compound 65], the concentration for half-maximal inhibition (IC50) lay in the range of 0.102 to 0.959 µM.

As to `C[C@H](NC(=O)c1cccc(C(=O)NCc2ccc3nc(N)sc3c2)n1)C(=O)O` [Compound 66], the IC50 was > 1 µM and 1.03 to 10 µM.

Compound `Nc1nc2ccc(CNC(=O)c3cccc(C(=O)NC4CCCC4)n3)cc2s1` [Compound 67] displayed a concentration for half-maximal inhibition (IC50) of 0.102 to 0.959 µM.

Turning to `Nc1nc2ccc(CNC(=O)c3cccc(C(=O)N[C@H]4CC[C@H](O)CC4)n3)cc2s1` [Compound 68], the IC50 was 0.102 to 0.959 µM.

`Nc1nc2ccc(CNC(=O)c3cccc(C(=O)NCCCn4ccnc4)n3)cc2s1` [Compound 69]: the IC50 was in the range of 0.102 to 0.959 µM.

`C[C@@H](CNC(=O)c1cccc(C(=O)NCc2ccc3nc(N)sc3c2)n1)c1ccccc1` [Compound 70] had an IC50 of 0.102 to 0.959 µM.

With `CC(C)CCNC(=O)c1cccc(C(=O)NCc2ccc3nc(N)sc3c2)n1` [Compound 71], the 50% inhibitory concentration (IC50) was 0.102 to 0.959 µM.
